Tests used:
[1] = target: T1, Amine oxidase [flavin-containing] A (Homo sapiens, UniProt P21397); test: biochemical
T1 sequence (P21397 whole entry): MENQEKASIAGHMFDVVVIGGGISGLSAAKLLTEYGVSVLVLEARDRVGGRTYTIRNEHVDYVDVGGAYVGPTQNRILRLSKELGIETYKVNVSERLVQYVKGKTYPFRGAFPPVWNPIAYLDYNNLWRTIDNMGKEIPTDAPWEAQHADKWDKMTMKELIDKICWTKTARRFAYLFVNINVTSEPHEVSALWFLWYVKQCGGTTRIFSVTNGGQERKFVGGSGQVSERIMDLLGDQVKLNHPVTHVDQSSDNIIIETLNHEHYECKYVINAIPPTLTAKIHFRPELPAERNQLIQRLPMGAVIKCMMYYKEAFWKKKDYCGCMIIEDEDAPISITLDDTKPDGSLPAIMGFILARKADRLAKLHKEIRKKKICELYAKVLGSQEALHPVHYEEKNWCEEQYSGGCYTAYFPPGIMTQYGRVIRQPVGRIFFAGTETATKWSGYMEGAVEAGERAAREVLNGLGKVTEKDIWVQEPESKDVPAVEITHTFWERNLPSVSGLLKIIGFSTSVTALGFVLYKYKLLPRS
Description: Inhibition of human recombinant MAO-A expressed in baculovirus infected BTI insect cells using luminogenic MAO substrate incubated for 1 hr by luciferin-based luminescence assay

[2] = target: T2, Amine oxidase [flavin-containing] B (Homo sapiens, UniProt P27338); test: biochemical
T2 sequence (P27338 whole entry): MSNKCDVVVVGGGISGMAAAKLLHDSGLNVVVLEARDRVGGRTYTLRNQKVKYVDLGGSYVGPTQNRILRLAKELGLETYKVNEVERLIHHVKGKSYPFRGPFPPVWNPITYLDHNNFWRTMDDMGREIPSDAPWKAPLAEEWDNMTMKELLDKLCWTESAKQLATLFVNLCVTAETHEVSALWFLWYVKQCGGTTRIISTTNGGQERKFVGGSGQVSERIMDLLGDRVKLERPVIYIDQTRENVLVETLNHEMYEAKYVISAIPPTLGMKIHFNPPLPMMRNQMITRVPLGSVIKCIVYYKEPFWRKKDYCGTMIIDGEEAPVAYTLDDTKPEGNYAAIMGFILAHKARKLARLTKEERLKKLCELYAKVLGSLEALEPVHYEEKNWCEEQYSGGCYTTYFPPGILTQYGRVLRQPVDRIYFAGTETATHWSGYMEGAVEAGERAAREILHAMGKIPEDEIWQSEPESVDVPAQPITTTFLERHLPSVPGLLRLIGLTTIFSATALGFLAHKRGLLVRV
Description: Inhibition of human recombinant MAO-B expressed in baculovirus infected BTI insect cells using luminogenic MAO substrate incubated for 1 hr by luciferin-based luminescence assay

[3] = tested on: MV4-11; test: Antiproliferative activity against human MV4-11 cells assessed as inhibition of cell growth incubated for 240 hrs by MTS assay; assay type: functional, cell-based; details: MV4-11, 240 h
[4] = target: T3, Lysine-specific histone demethylase 2 (Homo sapiens, UniProt Q8NB78); test: Inhibition of human LSD2 using H3K4Me2 peptide as substrate incubated for 60 min by peroxidase-coupled method
T3 sequence (Q8NB78 whole entry): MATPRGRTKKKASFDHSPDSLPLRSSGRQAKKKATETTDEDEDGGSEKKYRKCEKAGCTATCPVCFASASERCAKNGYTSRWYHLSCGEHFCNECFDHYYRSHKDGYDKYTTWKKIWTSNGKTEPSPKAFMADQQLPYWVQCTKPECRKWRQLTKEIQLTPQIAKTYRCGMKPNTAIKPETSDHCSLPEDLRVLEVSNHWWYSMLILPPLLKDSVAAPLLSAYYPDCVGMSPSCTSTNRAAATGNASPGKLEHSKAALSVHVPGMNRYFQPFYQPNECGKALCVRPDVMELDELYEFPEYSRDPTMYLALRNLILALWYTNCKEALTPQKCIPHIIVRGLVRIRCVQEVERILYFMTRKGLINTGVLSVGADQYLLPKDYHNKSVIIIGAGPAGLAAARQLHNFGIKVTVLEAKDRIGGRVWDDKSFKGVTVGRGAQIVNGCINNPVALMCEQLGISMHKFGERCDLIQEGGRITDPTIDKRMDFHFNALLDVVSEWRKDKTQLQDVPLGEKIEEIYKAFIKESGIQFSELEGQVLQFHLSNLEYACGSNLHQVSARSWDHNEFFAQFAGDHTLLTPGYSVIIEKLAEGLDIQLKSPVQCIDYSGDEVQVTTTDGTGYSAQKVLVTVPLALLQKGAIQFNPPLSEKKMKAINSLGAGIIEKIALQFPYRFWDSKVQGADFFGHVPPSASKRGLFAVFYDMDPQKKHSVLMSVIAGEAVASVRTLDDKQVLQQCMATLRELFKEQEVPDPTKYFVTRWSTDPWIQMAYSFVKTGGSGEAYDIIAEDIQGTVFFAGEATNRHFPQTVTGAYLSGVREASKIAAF

[5] = tested on: RPMI-8226; test: Antiproliferative activity against human RPMI-8226 cells assessed as inhibition of cell growth incubated for 240 hrs by MTS assay; assay type: functional, cell-based; details: RPMI-8226, 240 h

Row | Compound | IC50 [1] [µM] | IC50 [2] [µM] | IC50 [3] [µM] | Ki [4] [µM] | IC50 [5] [µM]
1 | CCC(=O)N1CCc2cc(C3CC3NCC3CCNCC3)ccc21 (trans isomer) | > 100 | > 100 | 7.66 | – | –
2 | CS(=O)(=O)N1CCc2cc(C3CC3NCC3CCNCC3)ccc21 (stereo unspecified) | > 100 | > 100 | 2.39 | – | –
3 | COc1cccc(S(=O)(=O)N2CCc3cc(C4CC4NCC4CCNCC4)ccc32)c1 (trans isomer) | – | > 100 | – | – | –
4 | O=S(=O)(c1ccccc1)N1CCc2cc(C3CC3NC3CC4(CCNCC4)C3)ccc21 (trans isomer) | > 100 | > 100 | – | – | –
5 | CCCC(=O)N1CCc2cc(C3CC3NCC3CCNCC3)ccc21 (stereo unspecified) | > 100 | > 100 | 18.8 | – | –
6 | N[C@H]1CC[C@H](CNC2CC2c2ccc3c(c2)CCN3S(=O)(=O)c2ccccc2)CC1 (stereo partly specified) | 96.3 | – | – | – | –
7 | O=C(c1ccccc1)N1CCc2cc(C3CC3NCC3CCNCC3)ccc21 (trans isomer) | > 100 | – | 4.14 | – | –
8 | N[C@@H]1C[C@H]1c1ccc(NC(=O)c2ccccc2)cc1 | – | – | – | 61 | –
9 | O=S(=O)(N1CCc2cc(C3CC3NCC3CCNCC3)ccc21)C(F)(F)F (trans isomer) | 8640 | – | – | – | –
10 | O=S(=O)(c1ccccc1)N1CCc2cc(C3CC3NCCC3CCNCC3)ccc21 (trans isomer) | > 100 | > 100 | 1.21 | – | > 20

— ChEMBL document CHEMBL5154758, “Structure-Activity Relationship Study of Indolin-5-yl-cyclopropanamine Derivatives as Selective Lysine Specific Demethylase 1 (LSD1) Inhibitors” (J Med Chem, 2022)
